Test results: ChEMBL document CHEMBL3046080, “Synthesis of imidazole-derived steroidal hybrids as potent aromatase inhibitors” (Med Chem Res, 2013)

How the values were obtained:
aromatase (CYP19) [1] = molecular target: T1, aromatase (CYP19) (Homo sapiens, UniProt P11511); assay: Inhibition of aromatase in Homo sapiens (human) placental microsome assessed as tritiated H2O release from [1-beta-3H] androstenedione substrate at 5 uM preincubated with substrate for 5 min prior to enzyme addition measured after 20 min by beta-scintillation counting analysis; design: species or system Placenta; conditions: placental microsomes, probe [1-beta-3H] androstenedione
T1 sequence (P11511 whole entry): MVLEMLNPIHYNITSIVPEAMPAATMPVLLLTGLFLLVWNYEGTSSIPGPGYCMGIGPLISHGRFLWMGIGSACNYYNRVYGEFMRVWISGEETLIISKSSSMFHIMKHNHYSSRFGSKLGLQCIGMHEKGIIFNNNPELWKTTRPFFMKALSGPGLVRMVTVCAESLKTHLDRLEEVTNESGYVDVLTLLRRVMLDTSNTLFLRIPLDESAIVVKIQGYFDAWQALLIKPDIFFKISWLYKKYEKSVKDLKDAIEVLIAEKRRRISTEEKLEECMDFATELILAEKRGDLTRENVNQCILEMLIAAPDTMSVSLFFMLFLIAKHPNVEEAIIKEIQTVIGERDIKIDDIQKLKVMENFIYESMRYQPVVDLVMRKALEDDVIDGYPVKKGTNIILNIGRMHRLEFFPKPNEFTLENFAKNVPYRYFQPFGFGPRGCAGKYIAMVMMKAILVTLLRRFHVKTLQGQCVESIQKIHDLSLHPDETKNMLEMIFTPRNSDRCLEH

aromatase (CYP19) [2] = molecular target: T1, aromatase (CYP19); assay: Inhibition of aromatase in Homo sapiens (human) placental microsome assessed as tritiated H2O release from [1-beta-3H] androstenedione substrate at 36 uM preincubated with substrate for 5 min prior to enzyme addition measured after 20 min by beta-scintillation counting analysis; design: species or system Placenta; conditions: placental microsomes, probe [1-beta-3H] androstenedione
Aromatase = molecular target: T2, Aromatase (Homo sapiens, UniProt P11511); design: species or system Placenta, Microsome
T2 sequence (P11511 whole entry): T1 sequence (P11511 whole entry)
Description: Inhibition of aromatase in Homo sapiens (human) placental microsome assessed as tritiated H2O release from [1-beta-3H] androstenedione substrate preincubated with substrate for 5 min prior to enzyme addition measured after 20 min by beta-scintillation counting analysis

C[C@]12CC[C@H](O)CC1=CC[C@@H]1[C@@H]2CC[C@]2(C)C(=O)/C(=C/c3ccc(OCCCCl)cc3)C[C@@H]12
inhibition at 20 min, 5 µM (aromatase (CYP19) [1]): 0.2%

C[C@]12CC[C@H](O)CC1=CC[C@@H]1[C@@H]2CC[C@]2(C)C(=O)/C(=C/c3ccc(OCCCn4ccnc4)cc3)C[C@@H]12
inhibition at 20 min, 5 µM (aromatase (CYP19) [1]): 4.1%

C[C@]12CC[C@H](O)CC1=CC[C@@H]1[C@@H]2CC[C@]2(C)C(=O)/C(=C/c3cccc(OCCCn4ccnc4)c3)C[C@@H]12
inhibition at 20 min, 36 µM (aromatase (CYP19) [2]): 34%

C[C@]12CC[C@H]3[C@@H](CC=C4C[C@@H](O)CC[C@@]43C)[C@@H]1C/C(=C\c1cccc(OCCCn3ccnc3)c1)[C@@H]2O
IC50 (Aromatase): 9.1 µM

C[C@]12CCC(=O)C=C1CC[C@@H]1[C@@H]2CC[C@]2(C)C(=O)/C(=C/c3ccc(OCCCn4ccnc4)cc3)C[C@@H]12
IC50 (Aromatase): 11.9 µM

CC(=O)O[C@H]1CC[C@@]2(C)C(=CC[C@H]3[C@@H]4C/C(=C\c5cccc(OCCCn6ccnc6)c5)[C@H](OC(C)=O)[C@@]4(C)CC[C@@H]32)C1
inhibition at 20 min, 36 µM (aromatase (CYP19) [2]): 34%

CC(=O)O[C@H]1CC[C@@]2(C)C(=CC[C@@H]3[C@@H]2CC[C@]2(C)C(=O)/C(=C/c4cccc(OCCCn5ccnc5)c4)C[C@@H]32)C1
inhibition at 20 min, 36 µM (aromatase (CYP19) [2]): 38%
